# Biological target: hENPP2 (Homo sapiens, UniProt Q13822)
# Test: Human ENPP2 (hENPP2) biochemical assay using LPC as substrate
# Conditions: 150 µM LPC (palmitoyl 16:0), 37°C for 30 min
# Procedure, shortened: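 IC50 came from compound series (top 50 µM, 1/3 steps) incubated 30 min at 37°C with 1 or 3 µg/mL final enzyme and palmitoyl LPC added at 150 µM, pH 8.5 Tris buffer with Ca2+. Choline output measured as quinoneimine dye at 555 nm via coupled oxidase/HRP/TOOS detection.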
row,SMILES,IC50 [nM]
1,"COc1cc2[nH]nnc2cc1C(=O)N1CC[C@H](N2Cc3cnc(Nc4cc(C)cc(C)c4)nc3C2)C[C@@H]1C [compound 113, [(2S,4S)-4-[2-(3,5-dimethylanilino)-5,7-dihydropyrrolo[3,4-d]pyrimidin-6-yl]-2-methyl-1-piperidyl]-(6-methoxy-1H-benzotriazol-5-yl)methanone]",0.01 to 100
2,"Cc1cc(C)cc(Nc2ncc3c(n2)CN(C2CC4CCC(C2)N4C(=O)c2ccc4[nH]nnc4c2)C3)c1 (stereo not drawn) [compound 114, 1H-benzotriazol-5-yl-[3-[2-(3,5-dimethylanilino)-5,7-dihydropyrrolo[3,4-d]pyrimidin-6-yl]-8-azabicyclo[3.2.1]octan-8-yl]methanone]",100 to 500
3,"Cc1cc(C)cc(Nc2ncc3c(n2)CN([C@H]2CCN(C(=O)c4cc5nn[nH]c5cc4F)[C@H](C)C2)C3)c1 [compound 116, [(2R,4S)-4-[2-(3,5-dimethylanilino)-5,7-dihydropyrrolo[3,4-d]pyrimidin-6-yl]-2-methyl-1-piperidyl]-(6-fluoro-1H-benzotriazol-5-yl)methanone]",0.01 to 100
4,"COc1cc(Nc2ncc3c(n2)CN([C@@H]2CCN(C(=O)c4ccc5[nH]nnc5c4)[C@H](C)C2)C3)ccc1F [compound 126, 1H-benzotriazol-5-yl-[(2R,4R)-4-[2-(4-fluoro-3-methoxy-anilino)-5,7-dihydropyrrolo[3,4-d]pyrimidin-6-yl]-2-methyl-1-piperidyl]methanone]",0.01 to 100
5,"C[C@@H]1C[C@@H](N2Cc3cnc(Nc4cc(C#N)cc(C(F)(F)F)c4)nc3C2)CCN1C(=O)c1ccc2[nH]nnc2c1 [compound 128, 3-[[6-[(2R,4S)-1-(1H-benzotriazole-5-carbonyl)-2-methyl-4-piperidyl]-5,7-dihydropyrrolo[3,4-d]pyrimidin-2-yl]amino]-5-(trifluoromethyl)benzonitrile]",0.01 to 100
6,"C[C@@H]1C[C@H](N2Cc3cnc(Nc4cc(C(N)=O)cc(C(F)(F)F)c4)nc3C2)CCN1C(=O)c1ccc2[nH]nnc2c1 [compound 129, 3-[[6-[(2R,4R)-1-(1H-benzotriazole-5-carbonyl)-2-methyl-4-piperidyl]-5,7-dihydropyrrolo[3,4-d]pyrimidin-2-yl]amino]-5-(trifluoromethyl)benzamide]",0.01 to 100
7,"Cc1ccc(Nc2ncc3c(n2)CN([C@@H]2CCN(C(=O)c4ccc5[nH]nnc5c4)[C@H](C)C2)C3)cc1 [compound 134, 1H-benzotriazol-5-yl-[(2R,4R)-2-methyl-4-[2-(4-methylanilino)-5,7-dihydropyrrolo[3,4-d]pyrimidin-6-yl]-1-piperidyl]methanone]",0.01 to 100
8,"C[C@@H]1C[C@H](N2Cc3cnc(Nc4ccc(Cl)cc4)nc3C2)CCN1C(=O)c1ccc2[nH]nnc2c1 [compound 135, 1H-benzotriazol-5-yl-[(2R,4R)-4-[2-(4-chloroanilino)-5,7-dihydropyrrolo[3,4-d]pyrimidin-6-yl]-2-methyl-1-piperidyl]methanone]",0.01 to 100
9,"C[C@@H]1C[C@@H](N2Cc3cnc(Nc4ccc(F)cc4)nc3C2)CCN1C(=O)c1ccc2[nH]nnc2c1 [compound 143, 1H-benzotriazol-5-yl-[(2R,4S)-4-[2-(4-fluoroanilino)-5,7-dihydropyrrolo[3,4-d]pyrimidin-6-yl]-2-methyl-1-piperidyl]methanone]",500 to 1000
10,"C[C@@H]1C[C@H](N2Cc3cnc(Nc4ccc(F)cc4)nc3C2)CCN1C(=O)c1ccc2[nH]nnc2c1 [compound 144, 1H-benzotriazol-5-yl-[(2R,4R)-4-[2-(4-fluoroanilino)-5,7-dihydropyrrolo[3,4-d]pyrimidin-6-yl]-2-methyl-1-piperidyl] methanone]",0.01 to 100
11,"Cc1cc(C)cc(Nc2ncc3c(n2)CN([C@@H]2CCN(C(=O)c4c[nH]nn4)[C@H](C)C2)C3)c1 [compound 147, [(2R,4R)-4-[2-(3,5-dimethylanilino)-5,7-dihydropyrrolo[3,4-d]pyrimidin-6-yl]-2-methyl-1-piperidyl]-(1H-triazol-4-yl)methanone]",0.01 to 100
12,"COc1ccc(Nc2ncc3c(n2)CN([C@@H]2CCN(C(=O)c4ccc5[nH]nnc5c4)[C@H](C)C2)C3)cc1 [compound 149, 1H-benzotriazol-5-yl-[(2R,4R)-4-[2-(4-methoxyanilino)-5,7-dihydropyrrolo[3,4-d]pyrimidin-6-yl]-2-methyl-1-piperidyl] methanone]",0.01 to 100
13,"C[C@@H]1C[C@H](N2Cc3cnc(Nc4ccc(S(F)(F)(F)(F)F)cc4)nc3C2)CCN1C(=O)c1ccc2[nH]nnc2c1 [compound 150, 1H-benzotriazol-5-yl-[(2R,4R)-2-methyl-4-[2-[4-(pentafluoro-λ^6-sulfanyl)anilino]-5,7-dihydropyrrolo[3,4-d]pyrimidin-6-yl]-1-piperidyl]methanone]",0.01 to 100
14,"COc1cc(Nc2ncc3c(n2)CN([C@@H]2CCN(C(=O)c4ccc5[nH]nnc5c4)[C@H](C)C2)C3)cc(OC)c1 [compound 151, 1H-benzotriazol-5-yl-[(2R,4R)-4-[2-(3,5-dimethoxyanilino)-5,7-dihydropyrrolo[3,4-d]pyrimidin-6-yl]-2-methyl-1-piperidyl]methanone]",0.01 to 100
15,"Cc1cc(C)cc(Nc2ncc3c(n2)CN([C@@H]2CCN(C(=O)c4ccc(NS(C)(=O)=O)nc4)[C@H](C)C2)C3)c1 [compound 155, N-[5-[(2R,4R)-4-[2-(3,5-dimethylanilino)-5,7-dihydropyrrolo[3,4-d]pyrimidin-6-yl]-2-methyl-piperidine-1-carbonyl]-2-pyridyl]methanesulfon amide]",0.01 to 100
16,"Cc1cc(C)cc(Nc2ncc3c(n2)CN([C@@H]2CCN(C(=O)c4ccc(S(N)(=O)=O)nc4)[C@H](C)C2)C3)c1 [compound 159, 5-[(2R,4R)-4-[2-(3,5-dimethylanilino)-5,7-dihydropyrrolo[3,4-d]pyrimidin-6-yl]-2-methyl-piperidine-1-carbonyl]pyridine-2-sulfonamide]",500 to 1000

# Next, values leading:
row,IC50 [nM],SMILES
1,0.01 to 100,"COc1cc2[nH]nnc2cc1C(=O)N1CC[C@@H](N2Cc3cnc(Nc4cc(C)cc(C)c4)nc3C2)C[C@@H]1C [compound 112, [(2S,4R)-4-[2-(3,5-dimethylanilino)-5,7-dihydropyrrolo[3,4-d]pyrimidin-6-yl]-2-methyl-1-piperidyl]-(6-methoxy-1H-benzotriazol-5-yl)methanone]"
2,0.01 to 100,"COc1cc2[nH]nnc2cc1C(=O)N1CC[C@H](N2Cc3cnc(Nc4cc(C)cc(C)c4)nc3C2)C[C@H]1C [compound 120, [(2R,4S)-4-[2-(3,5-dimethylanilino)-5,7-dihydropyrrolo[3,4-d]pyrimidin-6-yl]-2-methyl-1-piperidyl]-(6-methoxy-1H-benzotriazol-5-yl)methanone]"
3,> 1000,"Cc1cc(C)cc(Nc2ncc3c(n2)CN([C@H]2CCN(C(=O)c4cccc(-c5nnn[nH]5)c4)[C@@H](C)C2)C3)c1 [compound 123, [(2S,4S)-4-[2-(3,5-dimethylanilino)-5,7-dihydropyrrolo[3,4-d]pyrimidin-6-yl]-2-methyl-1-piperidyl]-[3-(1H-tetrazol-5-yl)phenyl]methanone]"
4,0.01 to 100,"COc1cc(Nc2ncc3c(n2)CN([C@@H]2CCN(C(=O)c4ccc5[nH]nnc5c4)[C@H](C)C2)C3)cc(C(F)(F)F)c1 [compound 127, 1H-benzotriazol-5-yl-[(2R,4R)-4-[2-[3-methoxy-5-(trifluoromethyl)anilino]-5,7-dihydropyrrolo[3,4-d]pyrimidin-6-yl]-2-methyl-1-piperidyl]methanone]"
5,100 to 500,"Cc1cc(C)cc(Nc2ncc3c(n2)CN(C2CCN(C(=O)c4cc5nn[nH]c5cn4)CC2)C3)c1 [compound 140, [4-[2-(3,5-dimethylanilino)-5,7-dihydropyrrolo[3,4-d]pyrimidin-6-yl]-1-piperidyl]-(3H-triazolo[4,5-c]pyridin-6-yl)methanone]"
6,0.01 to 100,"CCOc1cc2[nH]nnc2cc1C(=O)N1CCC(N2Cc3cnc(Nc4cc(C)cc(C)c4)nc3C2)CC1 [compound 141, [4-[2-(3,5-dimethylanilino)-5,7-dihydropyrrolo[3,4-d]pyrimidin-6-yl]-1-piperidyl]-(6-ethoxy-1H-benzotriazol-5-yl)methanone]"
7,> 1000,"COC(=O)c1cccc(C(=O)N2CC[C@@H](N3Cc4cnc(Nc5cc(C)cc(C)c5)nc4C3)C[C@H]2C)c1 [compound 145, methyl 3-[(2R,4R)-4-[2-(3,5-dimethylanilino)-5,7-dihydropyrrolo[3,4-d]pyrimidin-6-yl]-2-methyl-piperidine-1-carbonyl]benzoate]"
8,0.01 to 100,"C[C@@H]1C[C@H](N2Cc3cnc(Nc4ccc(C(F)(F)F)cc4)nc3C2)CCN1C(=O)c1ccc2[nH]nnc2c1 [compound 152, 1H-benzotriazol-5-yl-[(2R,4R)-2-methyl-4-[2-[4-(trifluoromethyl)anilino]-5,7-dihydropyrrolo[3,4-d]pyrimidin-6-yl]-1-piperidyl]methanone]"
9,0.01 to 100,"Cc1cc(C)cc(Nc2ncc3c(n2)CN([C@@H]2CCN(C(=O)c4ccnc(NS(C)(=O)=O)c4)[C@H](C)C2)C3)c1 [compound 154, N-[4-[(2R,4R)-4-[2-(3,5-dimethylanilino)-5,7-dihydropyrrolo[3,4-d]pyrimidin-6-yl]-2-methyl-piperidine-1-carbonyl]-2-pyridyl]methanesulfonamide]"
10,0.01 to 100,"Cc1cc(C)cc(Nc2ncc3c(n2)CN([C@@H]2CCN(C(=O)c4ccc5c(c4)CC(=O)N5)[C@H](C)C2)C3)c1 [compound 156, 5-[(2R,4R)-4-[2-(3,5-dimethylanilino)-5,7-dihydropyrrolo[3,4-d]pyrimidin-6-yl]-2-methyl-piperidine-1-carbonyl]indolin-2-one]"
11,0.01 to 100,"Cc1cc(C)cc(Nc2ncc3c(n2)CN([C@@H]2CCN(C(=O)c4ccc5[nH]c(=O)[nH]c5c4)[C@H](C)C2)C3)c1 [compound 157, 5-[(2R,4R)-4-[2-(3,5-dimethylanilino)-5,7-dihydropyrrolo[3,4-d]pyrimidin-6-yl]-2-methyl-piperidine-1-carbonyl]-1,3-dihydrobenzimidazol-2-one]"

# Source: patent publication EP3782997A1, “FUSED PYRIMIDINE COMPOUNDS AND PHARMACEUTICAL COMPOSITIONS THEREOF FOR THE TREATMENT OF FIBROTIC DISEASES” (Galapagos N.V., priority 2019, dated 2021)
